Reference: the NIST ThermoML archive (doi:10.1021/acs.jced.8b00595)

Settings: 101.3 kPa, Liquid; for viscosity: Concentric cylinders viscometry; for mass density: Vibrating tube method

COC(C)(C)C [2-methoxy-2-methylpropane]
Settings | mass density [kg/m3] | viscosity [mPa·s]
273.15 K | 761.3 | 0.495
288.15 K | 745.9 | 0.421
298.15 K | 735 | 0.381
308.15 K | 724.6 | 0.328
